# Assay results taken from patent US7582610B2, “Melanocortin receptor templates, peptides and use thereof” (priority 2003, dated 2009).
# Where a SMILES comes first, the peptide text is derived from it. Bridges are numbered along the chain shown (N, C = ends). [ ]: non-standard residue; d: D form. Nle = CCCC[C@H](N)C(=O)O; Dap = NC[C@H](N)C(=O)O
# Columns and labels:
# mMC1R = mMC1R (Mus musculus, UniProt Q01727); test: Functional bioassay, CRE/β-galactosidase reporter in HEK-293 cells stably expressing mMC1R; conditions: for pharmacology in words at mMC1R: slight agonist = some stimulatory response at 100 μM, not enough to determine an EC50
# Method: (§1) 5,000 to 15,000 post transfection cells were plated into 96 well Primera plates (Falcon) and incubated overnight. […] The assay media was aspirated and 50 μL of lysis buffer (250 mM Tris-HCl pH=8.0 and 0.1% Triton X-100) was added. The plates were stored at −80° overnight.
# (§2) The plates containing the cell lysates were thawed the following day. Aliquots of 10 μL were taken from each well and transferred to another 96-well plate for relative protein determination. To the cell lysate plates, 40 μL phosphate-buffered saline with 0.5% BSA was added to each well. Subsequently, 150 μL substrate buffer (60 mM sodium phosphate, 1 mM MgCl2, 10 mM KCl, 5 mM β-mercaptoethanol, 200 mg/100 mL ONPG) was added to each well and the plates were incubated at 37°.
# (§3) The sample absorbance, OD405, was measured using a 96 well plate reader (Molecular Devices). The relative protein was determined by adding 200 μL 1:5 dilution Bio Rad G250 protein dye:water to the 10 μL cell lysate sample taken previously, and the OD595 was measured on a 96 well plate reader (Molecular Devices). Data points were normalized both to the relative protein content and non-receptor dependent forskolin stimulation.
# (§4) For data analysis, EC50 and pA2 values represent the mean of duplicate experiments performed in triplet, quadruplet or more independent experiments.
# mMC3R [1] = target: T1, mMC3R (Mus musculus, UniProt P33033); test: Functional bioassay, CRE/β-galactosidase reporter in HEK-293 cells stably expressing mMC3R; conditions: for pharmacology in words at mMC3R: slight agonist = some stimulatory response at 100 μM, not enough to determine an EC50
# Method: as §1, §2, §3, §4
# mMC4R [2] = target: T2, mMC4R (Mus musculus, UniProt P56450); test: Functional bioassay, CRE/β-galactosidase reporter in HEK-293 cells stably expressing mMC4R
# Method: as §1, §2, §3, §4
# mMC5R = mMC5R (Mus musculus, UniProt P41149); test: Functional bioassay, CRE/β-galactosidase reporter in HEK-293 cells stably expressing mMC5R; conditions: for pharmacology in words at mMC5R: slight agonist = some stimulatory response at 100 μM, not enough to determine an EC50
# Method: as §1, §2, §3, §4
# mMC3R [3] = target: T1, mMC3R; test: Receptor binding study, competitive displacement of 125I-NDP-MSH at mMC3R; design: expressed in transfected cells; conditions: peptide at 10 μM
# mMC4R [4] = target: T2, mMC4R; test: Receptor binding study, competitive displacement of 125I-NDP-MSH at mMC4R; design: expressed in transfected cells; conditions: peptide at 10 μM
# mMC5R, sequence (P41149 whole entry): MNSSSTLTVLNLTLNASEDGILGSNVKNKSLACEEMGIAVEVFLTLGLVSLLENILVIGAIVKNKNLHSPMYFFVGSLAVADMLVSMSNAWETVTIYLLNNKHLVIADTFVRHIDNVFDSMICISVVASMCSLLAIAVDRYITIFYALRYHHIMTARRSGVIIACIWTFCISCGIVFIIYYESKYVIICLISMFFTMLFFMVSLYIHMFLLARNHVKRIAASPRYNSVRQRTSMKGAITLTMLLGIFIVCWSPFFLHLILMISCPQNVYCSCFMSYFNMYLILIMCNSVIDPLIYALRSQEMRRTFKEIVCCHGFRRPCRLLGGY
# T1 sequence (P33033 whole entry): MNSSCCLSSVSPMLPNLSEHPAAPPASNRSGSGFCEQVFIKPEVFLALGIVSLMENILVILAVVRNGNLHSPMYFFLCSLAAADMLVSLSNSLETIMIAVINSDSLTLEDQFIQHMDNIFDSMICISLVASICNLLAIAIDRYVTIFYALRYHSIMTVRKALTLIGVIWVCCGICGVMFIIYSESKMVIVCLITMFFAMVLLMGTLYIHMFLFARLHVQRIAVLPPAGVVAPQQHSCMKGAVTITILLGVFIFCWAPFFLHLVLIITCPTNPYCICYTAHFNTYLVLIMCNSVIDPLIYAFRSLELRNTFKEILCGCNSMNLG
# mMC1R, sequence (Q01727 whole entry): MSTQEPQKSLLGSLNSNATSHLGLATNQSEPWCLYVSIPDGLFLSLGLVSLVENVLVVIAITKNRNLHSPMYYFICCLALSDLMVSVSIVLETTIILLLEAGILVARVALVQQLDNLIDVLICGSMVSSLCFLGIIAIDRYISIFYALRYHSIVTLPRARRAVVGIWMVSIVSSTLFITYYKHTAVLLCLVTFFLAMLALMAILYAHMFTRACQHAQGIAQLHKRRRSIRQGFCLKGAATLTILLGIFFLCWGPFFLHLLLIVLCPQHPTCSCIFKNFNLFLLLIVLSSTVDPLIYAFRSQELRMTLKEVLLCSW
# T2 sequence (P56450 whole entry): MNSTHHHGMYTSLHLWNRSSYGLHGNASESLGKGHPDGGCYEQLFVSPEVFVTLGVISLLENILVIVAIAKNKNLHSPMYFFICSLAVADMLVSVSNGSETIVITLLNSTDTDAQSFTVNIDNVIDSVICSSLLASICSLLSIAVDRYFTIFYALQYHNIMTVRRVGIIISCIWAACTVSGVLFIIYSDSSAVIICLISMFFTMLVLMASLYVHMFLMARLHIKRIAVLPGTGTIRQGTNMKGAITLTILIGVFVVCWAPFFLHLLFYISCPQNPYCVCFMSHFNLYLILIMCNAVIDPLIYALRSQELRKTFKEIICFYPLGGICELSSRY
EC50 (mMC1R) [µM],EC50 (mMC3R [1]) [µM],EC50 (mMC4R [2]) [µM],EC50 (mMC5R) [µM],pharmacology in words at mMC3R (mMC3R [1]),pharmacology in words at mMC1R (mMC1R),pharmacology in words at mMC5R (mMC5R),SMILES,also measured
–,> 100,> 100,> 100,–,Partial agonist,–,CCCC[C@H](NC(=O)[C@H](CO)NC(=O)[C@H](Cc1ccc(O)cc1)NC(=O)[C@H](CO)NC(C)=O)C(=O)N[C@@H](CCC(=O)O)C(=O)N[C@@H](Cc1ccccc1)C(=O)N[C@@H](Cc1ccccc1)C(=O)N[C@@H](CCCNC(=N)N)C(=O)NCC(=O)N[C@@H](CCCCN)C(=O)N1CCC[C@H]1C(=O)N[C@H](C(N)=O)C(C)C [SEQ ID NO: 13] (Ac-SYS[Nle]EFFRGKPV-NH2),–
–,–,> 100,–,Partial agonist,Partial agonist,Partial agonist,CCCC[C@H](NC(=O)[C@H](CO)NC(=O)[C@H](Cc1ccc(O)cc1)NC(=O)[C@H](CO)NC(C)=O)C(=O)N[C@@H](CCC(=O)O)C(=O)N[C@@H](Cc1c[nH]cn1)C(=O)N[C@@H](Cc1ccccc1)C(=O)N[C@@H](Cc1ccccc1)C(=O)N[C@@H](CCCNC(=N)N)C(=O)NCC(=O)N[C@@H](CCCCN)C(=O)N1CCC[C@H]1C(=O)N[C@H](C(N)=O)C(C)C [SEQ ID NO: 14] (Ac-SYS[Nle]EHFFRGKPV-NH2),–
–,> 100,> 100,–,–,Slight agonist,Slight agonist,"CCCC[C@H](NC(=O)[C@H](CO)NC(=O)[C@H](Cc1ccc(O)cc1)NC(=O)[C@H](CO)NC(C)=O)C(=O)N[C@@H](CCC(=O)O)C(=O)N[C@@H](Cc1c[nH]cn1)C(=O)N[C@H](CCCNC(=N)N)C(=O)N[C@@H](Cc1ccccc1)C(=O)N[C@@H](Cc1ccccc1)C(=O)NCC(=O)N[C@@H](CCCCN)C(=O)N1CCC[C@H]1C(=O)N[C@H](C(N)=O)C(C)C [SEQ ID NO: 16, Ac-Ser-Tyr-Ser-Nle-Glu-His-DArg-Phe-Phe-Gly-Lys-Pro-Val] (Ac-SYS[Nle]EH[dR]FFGKPV-NH2)",–
–,> 100,> 100,–,–,–,Slight agonist,"CCCC[C@H](NC(=O)[C@H](CO)NC(=O)[C@H](Cc1ccc(O)cc1)NC(=O)[C@H](CO)NC(C)=O)C(=O)N[C@@H](CCC(=O)O)C(=O)N[C@@H](Cc1c[nH]cn1)C(=O)N[C@@H](CCCNC(=N)N)C(=O)N[C@@H](Cc1ccccc1)C(=O)N[C@H](Cc1ccccc1)C(=O)NCC(=O)N[C@@H](CCCCN)C(=O)N1CCC[C@H]1C(=O)N[C@H](C(N)=O)C(C)C [SEQ ID NO: 18, Ac-Ser-Tyr-Ser-Nle-Glu-His-Arg-Phe-DPhe-Gly-Lys-Pro-Val] (Ac-SYS[Nle]EHRF[dF]GKPV-NH2)",–

# Further lines, the molecule ahead of its results:
SMILES,EC50 (mMC1R) [µM],EC50 (mMC3R [1]) [µM],EC50 (mMC4R [2]) [µM],EC50 (mMC5R) [µM],pharmacology in words at mMC3R (mMC3R [1]),pharmacology in words at mMC1R (mMC1R),pharmacology in words at mMC5R (mMC5R),also measured
"C[C@@H]1NC(=O)[C@H](C)NC(=O)[C@@H](NC(=O)[C@@H](N)Cc2ccc(O)cc2)CC(=O)NC[C@@H](C(=O)N[C@@H](Cc2ccc(O)cc2)C(N)=O)NC(=O)[C@H](Cc2ccccc2)NC(=O)[C@H](C)NC(=O)[C@H](CC(N)=O)NC(=O)[C@H](C)NC1=O [SEQ ID NO: 2, Tyr-c[Asp-Ala-Ala-Ala-Asn-Ala-Phe-Dpr]-Tyr] (H-YDAAANAF[Dap]Y-NH2; lactam 2-9)",> 100,> 100,> 100,> 100,–,–,–,–
"C[C@@H]1NC(=O)[C@H](CC(N)=O)NC(=O)[C@H](Cc2c[nH]c3ccccc23)NC(=O)[C@H](CCCNC(=N)N)NC(=O)[C@@H](Cc2ccccc2)NC(=O)[C@@H](NC(=O)[C@@H](N)Cc2ccc(O)cc2)CC(=O)NC[C@@H](C(=O)N[C@@H](Cc2ccc(O)cc2)C(N)=O)NC(=O)[C@H](Cc2ccccc2)NC1=O [SEQ ID NO: 7, Tyr-c[Asp-DPhe-Arg-Trp-Asn-Ala-Phe-Dpr]-Tyr] (H-YD[dF]RWNAF[Dap]Y-NH2; lactam 2-9)",–,–,0.45,–,Slight agonist,–,–,specific binding at mMC3R (displacement of 125I-NDP-MSH) (mMC3R [3]): ≤ 25%; MC4R versus MC3R selective (mMC4R [2]; agonist EC50 ratio): > 200 fold
C[C@@H]1NC(=O)[C@H](CC(N)=O)NC(=O)[C@H](Cc2ccccc2)NC(=O)[C@H](Cc2ccccc2)NC(=O)[C@H](CCCNC(=N)N)NC(=O)[C@H](Cc2c[nH]cn2)NC(=O)[C@@H](NC(=O)[C@@H](N)Cc2ccc(O)cc2)CC(=O)NC[C@@H](C(=O)N[C@@H](Cc2ccc(O)cc2)C(N)=O)NC(=O)[C@H](Cc2ccccc2)NC1=O [SEQ ID NO: 8] (H-YDHRFFNAF[Dap]Y-NH2; lactam 2-10),–,–,–,–,Slight agonist,–,–,specific binding at mMC3R (displacement of 125I-NDP-MSH) (mMC3R [3]): less than 50%; specific binding at mMC4R (displacement of 125I-NDP-MSH) (mMC4R [4]): less than 50%; decreased mMC1R agonist potency (mMC1R; compared with SEQ ID NO:3): 8 fold
CCCC[C@H](NC(=O)[C@H](CO)NC(=O)[C@H](Cc1ccc(O)cc1)NC(=O)[C@H](CO)NC(C)=O)C(=O)N[C@@H](CCC(=O)O)C(=O)N[C@@H](Cc1c[nH]cn1)C(=O)N[C@@H](C)C(=O)N[C@@H](C)C(=O)N[C@@H](C)C(=O)NCC(=O)N[C@@H](CCCCN)C(=O)N1CCC[C@H]1C(=O)N[C@H](C(N)=O)C(C)C [SEQ ID NO: 12] (Ac-SYS[Nle]EHAAAGKPV-NH2),> 100,> 100,> 100,> 100,–,–,–,specific binding at mMC3R (displacement of 125I-NDP-MSH) (mMC3R [3]): ≤ 25%
"CCCC[C@H](NC(=O)[C@H](CO)NC(=O)[C@H](Cc1ccc(O)cc1)NC(=O)[C@H](CO)NC(C)=O)C(=O)N[C@@H](CCC(=O)O)C(=O)N[C@@H](Cc1c[nH]cn1)C(=O)N[C@@H](CCCNC(=N)N)C(=O)N[C@H](Cc1ccccc1)C(=O)N[C@@H](Cc1ccccc1)C(=O)NCC(=O)N[C@@H](CCCCN)C(=O)N1CCC[C@H]1C(=O)N[C@H](C(N)=O)C(C)C [SEQ ID NO: 17, Ac-Ser-Tyr-Ser-Nle-Glu-His-Arg-DPhe-Phe-Gly-Lys-Pro-Val] (Ac-SYS[Nle]EHR[dF]FGKPV-NH2)",–,–,–,–,–,–,–,"specific binding at mMC4R (displacement of 125I-NDP-MSH) (mMC4R [4]): ≤ 25%; MC1R versus MC3R selective (mMC1R; agonist EC50 ratio): 850 fold; MC1R versus MC5R selective (mMC1R; agonist EC50 ratio): 62 fold; increase in mMC1R agonist potency (mMC1R; compared with SEQ ID NO:15): 8 fold; decreased mMC3R agonist potency (mMC3R [1]; compared with SEQ ID NO:15): 13 fold; pharmacology in words at mMC4R (mMC4R [2]; slight agonist = some stimulatory response at 100 μM, not enough to determine an EC50): Slight agonist"
"CCCC[C@H](NC(C)=O)C(=O)N[C@H]1CC(=O)NCCCC[C@@H](C(N)=O)NC(=O)[C@H](C)NC(=O)[C@H](C)NC(=O)[C@H](C)NC(=O)[C@H](Cc2c[nH]cn2)NC1=O [SEQ ID NO: 19, Ac-Nle-c[Asp-His-Ala-Ala-Ala-Lys]] (Ac-[Nle]DHAAAK-NH2; lactam 2-7)",> 100,> 100,> 100,> 100,–,–,–,–
"CCCC[C@H](NC(C)=O)C(=O)N[C@H]1CC(=O)NCCCC[C@@H](C(N)=O)NC(=O)[C@H](Cc2ccccc2)NC(=O)[C@H](Cc2ccccc2)NC(=O)[C@H](CCCNC(=N)N)NC(=O)[C@H](Cc2c[nH]cn2)NC1=O [SEQ ID NO: 20, Ac-Nle-c[Asp-His-Arg-Phe-Phe-Lys]] (Ac-[Nle]DHRFFK-NH2; lactam 2-7; C-terminus assumed)",–,> 100,> 100,> 100,–,Partial agonist,–,–
"CCCC[C@H](NC(C)=O)C(=O)N[C@H]1CC(=O)NCCCC[C@@H](C(N)=O)NC(=O)[C@H](Cc2ccccc2)NC(=O)[C@H](Cc2ccccc2)NC(=O)[C@@H](CCCNC(=N)N)NC(=O)[C@H](Cc2c[nH]cn2)NC1=O [SEQ ID NO: 21, Ac-Nle-c[Asp-His-DArg-Phe-Phe-Lys]] (Ac-[Nle]DH[dR]FFK-NH2; lactam 2-7)",> 100,> 100,> 100,> 100,–,–,–,–
"CCCC[C@H](NC(C)=O)C(=O)N[C@H]1CC(=O)NCCCC[C@@H](C(N)=O)NC(=O)[C@@H](Cc2ccccc2)NC(=O)[C@H](Cc2ccccc2)NC(=O)[C@H](CCCNC(=N)N)NC(=O)[C@H](Cc2c[nH]cn2)NC1=O [SEQ ID NO: 23, Ac-Nle-c[Asp-His-Arg-Phe-DPhe-Lys]] (Ac-[Nle]DHRF[dF]K-NH2; lactam 2-7)",–,–,> 100,–,Slight agonist,–,Slight agonist,–
